Laboratory results as given in patent publication US7319098B2, “1,3-dioxoisoindole derivatives having selective antagonism of T-type calcium channel” (Korea Institute of Science and Technology, priority 2006, dated 2008).

Molecular target: T1, α1G T-type Ca2+ channels (Homo sapiens, UniProt O43497)
T1 construct: expressed in transfected cells; host or cells: HEK293 cells stably expressing α1G and Kir2.1
Experiment: Screening of activity against T-type calcium channel with FDSS6000 (fluorescence, KCl-induced [Ca2+]i increase)
Assay type: cell-based
Conditions: 10 μM; HEK293 cells expressing α1G and Kir2.1; NA: Not Active; read-out: Inhibitory effect (%) of T-type calcium channel, Inhibition (%)
Procedure: Meanwhile, the antagonistic activity of the novel compound of Formula (1) herein against T-type calcium channel was tested as described below. The synthesized compounds were tested for the activity against T-type calcium channel with FDSS6000. Compounds with good activity were selected and IC50 values were exactly obtained by using electrophysiological whole cell patch clamp method. HEK293 cells which stably express both α1G and Kir2.1 subunits were grown in Dulbecco's modified Eagle's medium supplemented with 10% (v/v) fetal bovine serum, penicillin (100 U/mL), streptomycin (100 μg/mL), geneticin (500 μg/mL), and +puromycin (I μg/mL) at 37° C. in a humid atmosphere of 5% CO2 and 95% air. Cells were seeded into 96-well black wall clear bottom plates at a density of 4×10^4 cells/well and were used the next day for high-throughput screening (HTS) FDSS6000 assay. For FDSS6000 assay, cells were incubated for 60 min at room temperature with 5 μM fluo3/AM and 0.001% Pluronic F-127 in a HEPES-buffered solution composed of (in mM): 115 NaCl, 5.4 KCl, 0.8 MgCl2, 1.8 CaCl2, 20 HEPES, 13.8 glucose (pH 7.4). During the fluorescence-based FDSS6000 assay, cells in HEPES-buffered solution containing 10 mM CaCl2 were pretreated with a certain concentration of test compounds and then treated with high concentration of KCl ([…]). α1G T-type Ca^2+ channels were activated by using high concentration of KCl (70 mM) and the increase in [Ca^2+]i by KCl-induced depolarization was detected. During the whole procedure, cells were washed using the BIO-TEK 96-well washer. All data were collected and analyzed using FDSS6000 and related software (Hamamatsu, Japan). The IC50 results of examining the inhibitory effects of the compounds herein selected with FDSS6000 on the calcium influx through the T-type calcium channel are provided in TABLEs 1 and 2.

T1 sequence (O43497 whole entry): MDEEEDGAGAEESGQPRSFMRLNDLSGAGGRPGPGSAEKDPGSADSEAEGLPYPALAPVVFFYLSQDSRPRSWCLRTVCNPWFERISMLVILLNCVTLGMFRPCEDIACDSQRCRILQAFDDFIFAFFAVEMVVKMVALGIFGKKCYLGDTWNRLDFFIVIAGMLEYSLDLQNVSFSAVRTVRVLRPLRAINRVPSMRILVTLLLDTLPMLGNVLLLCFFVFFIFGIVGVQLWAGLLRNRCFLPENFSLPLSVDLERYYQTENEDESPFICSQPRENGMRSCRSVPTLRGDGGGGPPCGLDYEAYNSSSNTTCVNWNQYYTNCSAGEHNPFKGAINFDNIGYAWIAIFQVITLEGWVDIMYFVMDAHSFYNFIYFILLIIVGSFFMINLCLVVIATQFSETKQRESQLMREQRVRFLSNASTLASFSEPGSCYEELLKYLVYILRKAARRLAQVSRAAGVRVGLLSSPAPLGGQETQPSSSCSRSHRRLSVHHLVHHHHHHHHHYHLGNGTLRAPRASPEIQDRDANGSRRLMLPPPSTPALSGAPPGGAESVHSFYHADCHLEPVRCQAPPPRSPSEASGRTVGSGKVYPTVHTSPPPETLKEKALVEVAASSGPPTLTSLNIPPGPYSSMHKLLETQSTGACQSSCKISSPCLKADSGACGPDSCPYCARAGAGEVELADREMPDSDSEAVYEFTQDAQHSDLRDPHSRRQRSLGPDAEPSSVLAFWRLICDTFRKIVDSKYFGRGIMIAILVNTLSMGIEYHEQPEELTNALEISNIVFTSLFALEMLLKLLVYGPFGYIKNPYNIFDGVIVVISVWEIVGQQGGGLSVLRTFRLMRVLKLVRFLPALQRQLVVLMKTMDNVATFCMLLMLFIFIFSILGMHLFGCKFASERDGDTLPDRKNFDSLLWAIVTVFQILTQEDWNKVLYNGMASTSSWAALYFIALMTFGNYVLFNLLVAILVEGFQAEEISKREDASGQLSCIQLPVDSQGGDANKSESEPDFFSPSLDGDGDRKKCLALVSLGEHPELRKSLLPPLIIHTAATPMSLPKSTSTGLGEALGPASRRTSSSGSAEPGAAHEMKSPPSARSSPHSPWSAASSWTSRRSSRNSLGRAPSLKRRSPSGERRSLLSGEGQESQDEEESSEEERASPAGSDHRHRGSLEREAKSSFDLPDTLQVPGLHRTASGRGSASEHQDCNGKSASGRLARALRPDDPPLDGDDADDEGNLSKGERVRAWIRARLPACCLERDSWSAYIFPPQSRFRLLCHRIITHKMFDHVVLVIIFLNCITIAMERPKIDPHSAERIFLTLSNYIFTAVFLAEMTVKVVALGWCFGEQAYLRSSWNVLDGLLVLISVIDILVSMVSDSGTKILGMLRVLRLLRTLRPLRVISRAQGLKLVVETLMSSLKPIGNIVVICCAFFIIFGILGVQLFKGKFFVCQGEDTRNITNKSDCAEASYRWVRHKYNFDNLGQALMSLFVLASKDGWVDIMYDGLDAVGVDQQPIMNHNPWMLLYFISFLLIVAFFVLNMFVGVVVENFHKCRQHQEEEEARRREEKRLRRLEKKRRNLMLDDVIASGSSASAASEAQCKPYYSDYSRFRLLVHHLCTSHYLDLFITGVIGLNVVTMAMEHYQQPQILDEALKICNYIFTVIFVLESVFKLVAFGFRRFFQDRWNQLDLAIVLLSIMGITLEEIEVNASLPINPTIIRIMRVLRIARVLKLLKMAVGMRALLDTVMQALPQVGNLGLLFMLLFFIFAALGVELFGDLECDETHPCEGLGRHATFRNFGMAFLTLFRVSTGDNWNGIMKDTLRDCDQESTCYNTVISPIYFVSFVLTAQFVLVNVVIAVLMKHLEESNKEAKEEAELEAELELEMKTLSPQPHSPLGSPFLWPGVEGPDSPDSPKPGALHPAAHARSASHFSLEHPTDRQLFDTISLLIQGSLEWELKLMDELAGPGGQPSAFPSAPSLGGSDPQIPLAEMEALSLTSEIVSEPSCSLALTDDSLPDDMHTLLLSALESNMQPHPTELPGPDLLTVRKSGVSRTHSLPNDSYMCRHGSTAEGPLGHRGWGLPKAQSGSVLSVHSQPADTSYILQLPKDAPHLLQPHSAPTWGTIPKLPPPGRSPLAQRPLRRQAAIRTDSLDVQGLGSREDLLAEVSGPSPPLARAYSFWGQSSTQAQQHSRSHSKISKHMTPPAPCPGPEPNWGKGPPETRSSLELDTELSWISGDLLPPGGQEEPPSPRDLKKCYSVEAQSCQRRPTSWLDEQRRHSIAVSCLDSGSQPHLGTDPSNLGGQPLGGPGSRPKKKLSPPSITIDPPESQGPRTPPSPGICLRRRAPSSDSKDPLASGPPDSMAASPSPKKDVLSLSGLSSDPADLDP

inhibition at 10 µM [%] | SMILES
10 | Cc1cccc(N2C(=O)c3ccc(C(=O)NCCCN4CCCCC4C)cc3C2=O)c1 (stereo not drawn) [Compound 34, 1-{3-[(1,3-dioxo-2-m-tolyl-2,3-dihydro-1H-isoindol-5-carbonyl)-amino]-propyl}-2-methyl-piperidinium chloride]
4.7 | Cc1cccc(N2C(=O)c3ccc(C(=O)NCCN4CCCC4)cc3C2=O)c1 [Compound 35, 1-{2-[(1,3-dioxo-2-m-tolyl-2,3-dihydro-1H-isoindol-5-carbonyl)-amino]-ethyl}-pyrrolidinium chloride]
5.3 | Cc1cccc(N2C(=O)c3ccc(C(=O)NCCCN4CCCC4)cc3C2=O)c1 [Compound 36, 1-{3-[(1,3-dioxo-2-m-tolyl-2,3-dihydro-1H-isoindol-5-carbonyl)-amino]-propyl}-pyrrolidinium chloride]
1.3 | Cc1cccc(N2C(=O)c3ccc(C(=O)NCCN4CCOCC4)cc3C2=O)c1 [Compound 37, 4-{2-[(1,3-dioxo-2-m-tolyl-2,3-dihydro-1H-isoindol-5-carbonyl)-amino]-ethyl}-4-morpholinium chloride]
4.2 | Cc1cccc(N2C(=O)c3ccc(C(=O)NCCCN4CCOCC4)cc3C2=O)c1 [Compound 38, 4-{3-[(1,3-dioxo-2-m-tolyl-2,3-dihydro-1H-isoindol-5-carbonyl)-amino]-propyl}-4-morpholinium chloride]
11.7 | Cc1ccc(N2C(=O)c3ccc(C(=O)NCCCN4CCCCC4C)cc3C2=O)cc1 (stereo not drawn) [Compound 40, 1-{3-[(1,3-dioxo-2-p-tolyl-2,3-dihydro-1H-isoindol-5-carbonyl)-amino]-propyl}-2-methyl-piperidinium chloride]
2 | Cc1ccc(N2C(=O)c3ccc(C(=O)NCCN4CCCC4)cc3C2=O)cc1 [Compound 41, 1-{2-[(1,3-dioxo-2-p-tolyl-2,3-dihydro-1H-isoindol-5-carbonyl)-amino]-ethyl}-pyrrolidinium chloride]
2.2 | CN1CCN(CCCNC(=O)c2ccc3c(c2)C(=O)N(Cc2cccc(F)c2)C3=O)CC1 [Compound 67, 1-(3-{[2-(3-fluoro-benzyl)-1,3-dioxo-2,3-dihydro-1H-isoindol-5-carbonyl]-amino}-propyl)-4-methyl-1-piperazinium chloride]

Same assay, conditions: 100 μM; HEK293 cells expressing α1G and Kir2.1; read-out: Inhibitory effect (%) of T-type calcium channel, Inhibition (%)

SMILES | inhibition at 100 µM [%]
Cc1ccccc1N1C(=O)c2ccc(C(=O)NCCN3CCOCC3)cc2C1=O [Compound 32, 4-{2-[(1,3-dioxo-2-o-tolyl-2,3-dihydro-1H-isoindol-5-carbonyl)-amino]-ethyl}-4-morpholinium chloride] | 22.3
Cc1cccc(N2C(=O)c3ccc(C(=O)NCCN4CCCCC4)cc3C2=O)c1 [Compound 33, 1-{2-[(1,3-dioxo-2-m-tolyl-2,3-dihydro-1H-isoindol-5-carbonyl)-amino]-ethyl}-piperidinium chloride] | 64.5
Cc1ccc(N2C(=O)c3ccc(C(=O)NCCN4CCCCC4)cc3C2=O)cc1 [Compound 39, 1-{2-[(1,3-dioxo-2-p-tolyl-2,3-dihydro-1H-isoindol-5-carbonyl)-amino]-ethyl}-piperidinium chloride] | 39.4
COc1cccc(N2C(=O)c3ccc(C(=O)NCCN4CCCCC4)cc3C2=O)c1 [Compound 46, 1-(2-{[2-(3-methoxy-phenyl)-1,3-dioxo-2,3-dihydro-1H-isoindol-5-carbonyl]-amino}-ethyl)-piperidinium chloride] | 31.4
COc1ccc(N2C(=O)c3ccc(C(=O)NCCN4CCCCC4)cc3C2=O)cc1 [Compound 48, 1-(2-{[2-(4-methoxy-phenyl)-1,3-dioxo-2,3-dihydro-1H-isoindol-5-carbonyl]-amino}-ethyl)-piperidinium chloride] | 31.4
O=C(NCCN1CCCCC1)c1ccc2c(c1)C(=O)N(Cc1ccccc1)C2=O [Compound 49, 1-{2-[(2-benzyl-1,3-dioxo-2,3-dihydro-1H-isoindol-5-carbonyl)-amino]-ethyl}-piperidinium chloride] | 72.4
CC1CCCCN1CCCNC(=O)c1ccc2c(c1)C(=O)N(Cc1ccccc1)C2=O (stereo not drawn) [Compound 50, 1-{3-[(2-benzyl-1,3-dioxo-2,3-dihydro-1H-isoindol-5-carbonyl)-amino]-propyl}-2-methyl-piperidinium chloride] | 69.6
O=C(NCCN1CCCC1)c1ccc2c(c1)C(=O)N(Cc1ccccc1)C2=O [Compound 51, 1-{2-[(2-benzyl-1,3-dioxo-2,3-dihydro-1H-isoindol-5-carbonyl)-amino]-ethyl}-pyrrolidinium chloride] | 48.4
O=C(NCCCN1CCCC1)c1ccc2c(c1)C(=O)N(Cc1ccccc1)C2=O [Compound 52, 1-{3-[(2-benzyl-1,3-dioxo-2,3-dihydro-1H-isoindol-5-carbonyl)-amino]-propyl}-pyrrolidinium chloride] | 45.8

More lines, now with the values ahead:

inhibition at 100 µM [%] | SMILES
42.5 | O=C(NCCN1CCOCC1)c1ccc2c(c1)C(=O)N(Cc1ccccc1)C2=O [Compound 53, 4-{2-[(2-benzyl-1,3-dioxo-2,3-dihydro-1H-isoindol-5-carbonyl)-amino]-ethyl}-4-morpholinium chloride]
38.5 | O=C(NCCCN1CCOCC1)c1ccc2c(c1)C(=O)N(Cc1ccccc1)C2=O [Compound 54, 4-{3-[(2-benzyl-1,3-dioxo-2,3-dihydro-1H-isoindol-5-carbonyl)-amino]-propyl}-4-morpholinium chloride]
79.9 | O=C(NCCN1CCCCC1)c1ccc2c(c1)C(=O)N(Cc1ccccc1F)C2=O [Compound 55, 1-(2-{[2-(2-fluoro-benzyl)-1,3-dioxo-2,3-dihydro-1H-isoindol-5-carbonyl]-amino}-ethyl)-piperidinium chloride]
78.8 | CC1CCCCN1CCCNC(=O)c1ccc2c(c1)C(=O)N(Cc1ccccc1F)C2=O (stereo not drawn) [Compound 56, 1-(3-{[2-(2-fluoro-benzyl)-1,3-dioxo-2,3-dihydro-1H-isoindol-5-carbonyl]-amino}-propyl)-2-methyl-piperidinium chloride]
65.5 | O=C(NCCN1CCCC1)c1ccc2c(c1)C(=O)N(Cc1ccccc1F)C2=O [Compound 57, 1-(2-{[2-(2-fluoro-benzyl)-1,3-dioxo-2,3-dihydro-1H isoindol-5-carbonyl]-amino}-ethyl)-pyrrolidinium chloride]
70.6 | O=C(NCCCN1CCCC1)c1ccc2c(c1)C(=O)N(Cc1ccccc1F)C2=O [Compound 58, 1-(3-{[2-(2-fluoro-benzyl)-1,3-dioxo-2,3-dihydro-1H-isoindol-5-carbonyl]-amino}-propyl)-pyrrolidinium chloride]
30.2 | O=C(NCCN1CCOCC1)c1ccc2c(c1)C(=O)N(Cc1ccccc1F)C2=O [Compound 59, 4-(2-{[2-(2-fluoro-benzyl)-1,3-dioxo-2,3-dihydro-1H-isoindol-5-carbonyl]-amino}-ethyl)-4-morpholinium chloride]
60.8 | O=C(NCCCN1CCOCC1)c1ccc2c(c1)C(=O)N(Cc1ccccc1F)C2=O [Compound 60, 4-(3-{[2-(2-fluoro-benzyl)-1,3-dioxo-2,3-dihydro-1H-isoindol-5-carbonyl]-amino}-propyl)-4-morpholinium chloride]
83.5 | CC1CCCCN1CCCNC(=O)c1ccc2c(c1)C(=O)N(Cc1cccc(F)c1)C2=O (stereo not drawn) [Compound 62, 1-(3-{[2-(3-fluoro-benzyl)-1,3-dioxo-2,3-dihydro-1H-isoindol-5-carbonyl]-amino}-propyl)-2-methyl-piperidinium chloride]
73.4 | O=C(NCCN1CCCC1)c1ccc2c(c1)C(=O)N(Cc1cccc(F)c1)C2=O [Compound 63, 1-(2-{[2-(3-fluoro-benzyl)-1,3-dioxo-2,3-dihydro-1H-isoindol-5-carbonyl]-amino}-ethyl)-pyrrolidinium chloride]
65.9 | O=C(NCCCN1CCCC1)c1ccc2c(c1)C(=O)N(Cc1cccc(F)c1)C2=O [Compound 64, 1-(3-{[2-(3-fluoro-benzyl)-1,3-dioxo-2,3-dihydro-1H-isoindol-5-carbonyl]-amino}-propyl)-pyrrolidinium chloride]
59.8 | O=C(NCCN1CCOCC1)c1ccc2c(c1)C(=O)N(Cc1cccc(F)c1)C2=O [Compound 65, 4-(2-{[2-(3-fluoro-benzyl)-1,3-dioxo-2,3-dihydro-1H-isoindol-5-carbonyl]-amino}-ethyl)-4-morpholinium chloride]
59.8 | O=C(NCCCN1CCOCC1)c1ccc2c(c1)C(=O)N(Cc1cccc(F)c1)C2=O [Compound 66, 4-(3-{[2-(3-fluoro-benzyl)-1,3-dioxo-2,3-dihydro-1H-isoindol-5-carbonyl]-amino}-propyl)-4-morpholinium chloride]
